Experimental data reported in the supplement of paper PMC10307832.

Experiments:
Experiment in all cases: relative viability (nuclei count vs DMSO), 5 days (fraction); higher = more cells survive
FG-4592 + Palbociclib = compound: Cc1nc(C(=O)NCC(=O)O)c(O)c2ccc(Oc3ccccc3)cc12 [FG-4592] + CC(=O)c1c(C)c2cnc(Nc3ccc(N4CCNCC4)cn3)nc2n(C2CCCC2)c1=O [Palbociclib] (partner 0.5 µM)
Summary of the method: (§1)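 Cells from lung cancer lines were seeded into 1536-well plates and, one day later, dosed by pin tool. Treatments were either a single drug or a fixed dose of an anchor drug with five library-drug doses (not always all listed) in √10 steps. After 5 days, nuclei were stained in a one-step fixation (final 0.05% Triton X-100, 1% formaldehyde, 1 ug/ml Hoechst) and counted on 4× images, and relative viability is the treated-to-vehicle nuclei ratio, as the median of duplicate plates.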

IU1-47 + Lapatinib = compound: CC1=CC(=C(N1C2=CC=C(C=C2)Cl)C)C(=O)CN3CCCCC3 [IU1-47] + CS(=O)(=O)CCNCc1ccc(-c2ccc3ncnc(Nc4ccc(OCc5cccc(F)c5)c(Cl)c4)c3c2)o1 [Lapatinib] (partner 2 µM)
Summary of the method: as §1

FG-4592 + Phenformin = compound: Cc1nc(C(=O)NCC(=O)O)c(O)c2ccc(Oc3ccccc3)cc12 [FG-4592] + N=C(N)NC(=N)NCCc1ccccc1 [Phenformin] (partner 250 µM)
Summary of the method: as §1

FG-4592 + Luminespib = compound: Cc1nc(C(=O)NCC(=O)O)c(O)c2ccc(Oc3ccccc3)cc12 [FG-4592] + CCNC(=O)c1noc(-c2cc(C(C)C)c(O)cc2O)c1-c1ccc(CN2CCOCC2)cc1 [Luminespib] (partner 0.01 µM)
Summary of the method: as §1

| Cell Line | relative viability (FG-4592 + Palbociclib; first compound 0.08 µM) | relative viability (FG-4592 + Palbociclib; first compound 0.253 µM) | relative viability (FG-4592 + Palbociclib; first compound 0.8 µM) | relative viability (FG-4592 + Palbociclib; first compound 2.53 µM) | relative viability (FG-4592 + Palbociclib; first compound 8 µM) | relative viability (IU1-47 + Lapatinib; first compound 0.08 µM) | relative viability (IU1-47 + Lapatinib; first compound 0.253 µM) | relative viability (IU1-47 + Lapatinib; first compound 0.8 µM) | relative viability (IU1-47 + Lapatinib; first compound 2.53 µM) | relative viability (IU1-47 + Lapatinib; first compound 8 µM) | relative viability (FG-4592 + Phenformin; first compound 0.08 µM) | relative viability (FG-4592 + Phenformin; first compound 0.253 µM) | relative viability (FG-4592 + Phenformin; first compound 0.8 µM) | relative viability (FG-4592 + Phenformin; first compound 2.53 µM) | relative viability (FG-4592 + Phenformin; first compound 8 µM) | relative viability (FG-4592 + Luminespib; first compound 0.08 µM) | relative viability (FG-4592 + Luminespib; first compound 0.253 µM) | relative viability (FG-4592 + Luminespib; first compound 0.8 µM) | relative viability (FG-4592 + Luminespib; first compound 2.53 µM) | relative viability (FG-4592 + Luminespib; first compound 8 µM) |
| --- | --- | --- | --- | --- | --- | --- | --- | --- | --- | --- | --- | --- | --- | --- | --- | --- | --- | --- | --- | --- |
| HOP-62 | 0.393 | 0.439 | 0.365 | 0.407 | 0.37 | 1.14 | 1.01 | 1.12 | 0.844 | 0.954 | 0.601 | 0.654 | 0.672 | 0.657 | 0.665 | 0.88 | 0.871 | 0.993 | 0.902 | 0.962 |
| LOU-NH91 | 0.534 | 0.514 | 0.54 | 0.517 | 0.544 | 0.784 | 0.877 | 0.812 | 0.762 | 0.702 | 0.673 | 0.647 | 0.551 | 0.677 | 0.677 | 0.275 | 0.342 | 0.299 | 0.325 | 0.367 |
| NCI-H2228 | 0.678 | 0.762 | 0.603 | 0.89 | 0.421 | 0.974 | 0.885 | 1.19 | 0.833 | 0.734 | 0.358 | 0.221 | 0.225 | 0.348 | 0.24 | 0.151 | 0.181 | 0.174 | 0.113 | 0.16 |
| PC-14 | 0.545 | 0.415 | 0.571 | 0.486 | 0.488 | 0.273 | 0.32 | 0.407 | 0.304 | 0.304 | 0.628 | 0.505 | 0.411 | 0.667 | 0.558 | 0.136 | 0.177 | 0.143 | 0.197 | 0.16 |
| NCI-H1437 | 0.313 | 0.314 | 0.299 | 0.312 | 0.243 | 0.726 | 0.716 | 0.801 | 0.76 | 0.744 | 0.297 | 0.355 | 0.343 | 0.287 | 0.31 | 1.21 | 1.11 | 1.27 | 0.984 | 0.95 |
| NCI-H460 | 0.204 | 0.168 | 0.173 | 0.155 | 0.119 | 1.2 | 1.14 | 0.997 | 0.655 | 0.7 | 0.538 | 0.521 | 0.548 | 0.54 | 0.491 | 0.0351 | 0.0212 | 0.0354 | 0.0343 | 0.0187 |
| NCI-H1666 | 0.698 | 0.554 | 0.658 | 0.673 | 0.689 | 0.613 | 0.658 | 0.621 | 0.584 | 0.508 | 0.611 | 0.518 | 0.613 | 0.377 | 0.562 | 0.966 | 0.965 | 0.96 | 1 | 0.95 |
| NCI-H1651 | 0.522 | 0.488 | 0.488 | 0.518 | 0.458 | 0.735 | 0.743 | 0.913 | – | 0.943 | 0.32 | 0.316 | 0.335 | 0.355 | 0.421 | 0.9 | 0.767 | 0.789 | 0.836 | 0.867 |
| NCI-H1755 | 0.476 | 0.446 | 0.409 | 0.471 | 0.463 | 1.17 | 1.1 | 1.15 | 1.11 | 0.872 | 0.588 | 0.566 | 0.556 | 0.581 | 0.627 | 0.417 | 0.295 | 0.331 | 0.492 | 0.517 |
| NCI-H661 | 0.397 | 0.408 | 0.373 | 0.397 | 0.396 | 0.562 | 0.546 | 0.51 | 0.338 | 0.552 | 0.271 | 0.281 | 0.264 | 0.274 | 0.276 | 0.94 | 0.888 | 0.961 | 0.863 | 0.951 |
| HARA | 0.276 | 0.191 | 0.261 | 0.286 | 0.25 | 0.849 | 0.817 | 0.884 | 0.694 | 0.563 | 0.412 | 0.394 | 0.512 | 0.509 | 0.477 | 0.73 | 0.787 | 0.834 | 0.621 | 0.709 |
| NCI-H23 | 0.628 | 0.45 | 0.501 | 0.547 | 0.453 | 1.04 | 1.05 | 1.26 | 0.995 | 1.25 | 0.794 | 0.789 | 0.844 | 0.767 | 0.76 | 0.208 | 0.247 | 0.179 | 0.203 | 0.184 |
| LCLC-97TM1 | 0.254 | 0.215 | – | 0.181 | 0.191 | 1.34 | 0.635 | 0.92 | – | 0.78 | 0.415 | 0.385 | 0.44 | 0.423 | 0.426 | 0.763 | 0.728 | 0.854 | 0.695 | 0.797 |
| EPLC-272H | 0.323 | 0.289 | 0.327 | 0.378 | 0.283 | 1.16 | 0.925 | 0.965 | – | 0.528 | 0.323 | 0.237 | 0.268 | 0.274 | 0.31 | 0.455 | 0.241 | 0.212 | 0.295 | 0.228 |
| NCI-H1915 | 0.475 | 0.513 | 0.496 | 0.504 | 0.513 | 0.992 | 1.01 | 0.976 | – | 0.999 | 0.327 | 0.362 | 0.387 | 0.354 | 0.398 | 0.721 | 0.828 | 0.911 | 0.781 | 0.697 |
| NCI-H2405 | 0.454 | 0.449 | 0.48 | 0.46 | 0.442 | 1.04 | 1.12 | 1.1 | – | 1.11 | 0.282 | – | 0.382 | 0.342 | 0.42 | 0.577 | – | 0.675 | 0.691 | 0.658 |
